Experimental data taken from ChEMBL document CHEMBL1201862, “PubChem BioAssay data set” (2004).
Values joined by “and” are separate entries in the source; they are usually repeats but may differ in a detail not shown here. Equal values may be shown once.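 Following 48 hours of exposure in 96-well plates, responses at five concentrations were used to interpolate endpoints linearly. GI50: concentration for 50% inhibition of growth.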 Active and inactive are the calls of the source. Cut-off read from the data, not from the text of the source: active = GI50 up to about 1.1 µM and inactive = higher.

Experiments:
Test in all cases: inhibition of tumour cell growth, NCI panel, 48 h
OVCAR-3 = test system: OVCAR-3
HCC 2998 = test system: HCC 2998
UACC-62 = test system: UACC-62
HCT-15 = test system: HCT-15
OVCAR-5 = test system: OVCAR-5
SK-MEL-2 = test system: SK-MEL-2
786-0 = test system: 786-0
SF-268 = test system: SF-268
SF-539 = test system: SF-539
NCI/ADR-RES = test system: NCI/ADR-RES
HCT-116 = test system: HCT-116
U-251 = test system: U-251
TK-10 = test system: TK-10
RPMI-8226 = test system: RPMI-8226
NCI-H460 = test system: NCI-H460
NCI-H522 = test system: NCI-H522
PC-3 = test system: PC-3
T47D = test system: T47D
SW-620 = test system: SW-620
UACC-257 = test system: UACC-257
CCRF-CEM = test system: CCRF-CEM
MOLT-4 = test system: MOLT-4
ACHN = test system: ACHN
HOP-92 = test system: HOP-92
HOP-62 = test system: HOP-62
MDA-MB-231 = test system: MDA-MB-231
SNB-75 = test system: SNB-75
A498 = test system: A498
MDA-N = test system: MDA-N
UO-31 = test system: UO-31
LOX IMVI = test system: LOX IMVI
EKVX = test system: EKVX
COLO 205 = test system: COLO 205
SR = test system: SR
DU-145 = test system: DU-145
OVCAR-4 = test system: OVCAR-4
MDA-MB-435 = test system: MDA-MB-435
SK-OV-3 = test system: SK-OV-3
NCI-H23 = test system: NCI-H23
M14 = test system: M14
SF-295 = test system: SF-295
OVCAR-8 = test system: OVCAR-8
SK-MEL-28 = test system: SK-MEL-28
HT-29 = test system: HT-29
SNB-19 = test system: SNB-19
SN12C = test system: SN12C
MCF7 = test system: MCF7
K562 = test system: K562
CAKI-1 = test system: CAKI-1
HL-60 = test system: HL-60
IGROV-1 = test system: IGROV-1
Malme-3M = test system: Malme-3M
Hs-578T = test system: Hs-578T
NCI-H226 = test system: NCI-H226
A549 = test system: A549
KM12 = test system: KM12
SK-MEL-5 = test system: SK-MEL-5
RXF 393 = test system: RXF 393

In the case of CCCCCCCN(CCCCCCC)CC(O)c1cc2ccccc2c2cc(Br)ccc12 (stereo not given), the GI50 (OVCAR-3) is reported as 17.9 µM (inactive), the GI50 (HCC 2998) is reported as 15.2 µM (inactive) and the GI50 (UACC-62) is reported as 20.4 µM (inactive). For the same compound, the GI50 (HCT-15) was 7.53 µM, the GI50 (OVCAR-5) was > 100 µM (inactive) and the GI50 (SK-MEL-2) was 33.1 µM (inactive). The GI50 (786-0) was 31.6 µM (inactive), the GI50 (SF-268) was 19 µM (inactive) and the GI50 (SF-539) was > 100 µM (inactive). The GI50 (NCI/ADR-RES) was > 100 µM (inactive), the GI50 (HCT-116) was 21.1 µM (inactive) and the GI50 (U-251) was 18.3 µM (inactive). For the same compound, the GI50 (TK-10) was 47.6 µM (inactive), the GI50 (RPMI-8226) was 24.9 µM (inactive) and the GI50 (NCI-H460) was 23.1 µM (inactive). The GI50 (NCI-H522) was 28.7 µM (inactive), the GI50 (PC-3) was 24.2 µM (inactive) and the GI50 (T47D) was 43 µM (inactive). The GI50 (SW-620) was 23.1 µM (inactive), the GI50 (UACC-257) was 40.4 µM (inactive) and the GI50 (CCRF-CEM) was 40.9 µM (inactive). For the same compound, the GI50 (MOLT-4) was 35.1 µM (inactive), the GI50 (ACHN) was 24.5 µM (inactive) and the GI50 (HOP-92) was 19.2 µM (inactive). The GI50 (HOP-62) was 24.7 µM (inactive), the GI50 (MDA-MB-231) was 5.98 µM (inactive) and the GI50 (SNB-75) was 34.9 µM (inactive). For the same compound, the GI50 (A498) was > 100 µM (inactive), the GI50 (MDA-N) was 28.5 µM (inactive) and the GI50 (UO-31) was 57.1 µM (inactive). The GI50 (LOX IMVI) was 14.2 µM (inactive), the GI50 (EKVX) was 25.8 µM (inactive) and the GI50 (COLO 205) was 24.8 µM (inactive). For the same compound, the GI50 (SR) was 22.6 µM (inactive), the GI50 (DU-145) was 8.07 µM (inactive) and the GI50 (OVCAR-4) was > 100 µM (inactive). For the same compound, the GI50 (MDA-MB-435) was 33.1 µM (inactive), the GI50 (SK-OV-3) was > 100 µM (inactive) and the GI50 (NCI-H23) was 36 µM (inactive). The GI50 (M14) was 22.6 µM (inactive), the GI50 (SF-295) was > 10 µM (inactive) and the GI50 (OVCAR-8) was 30.3 µM (inactive). For the same compound, the GI50 (SK-MEL-28) was 36.6 µM (inactive), the GI50 (HT-29) was 67 µM (inactive) and the GI50 (SNB-19) was 38.7 µM (inactive). The GI50 (SN12C) was 6.58 µM (inactive), the GI50 (MCF7) was 12.7 µM (inactive) and the GI50 (K562) was 30.7 µM (inactive). The GI50 (CAKI-1) was 47.6 µM (inactive), the GI50 (HL-60) was 39.2 µM (inactive) and the GI50 (IGROV-1) was 62.1 µM (inactive). The GI50 (Malme-3M) was 19.5 µM (inactive).
For O=C1/C(=C/c2cccs2)NC(=S)N1CN1CCCC(CO)C1 (stereo not given), the GI50 (OVCAR-3) was > 100 µM (inactive), the GI50 (UACC-62) was > 100 µM (inactive) and the GI50 (HCT-15) was over 100 µM. For the same compound, the GI50 (OVCAR-5) was > 100 µM (inactive), the GI50 (SK-MEL-2) was > 100 µM (inactive) and the GI50 (786-0) was > 100 µM (inactive). The GI50 (SF-268) was > 100 µM (inactive), the GI50 (NCI/ADR-RES) was > 100 µM (inactive) and the GI50 (HCT-116) was > 100 µM (inactive). The GI50 (U-251) was > 100 µM (inactive), the GI50 (TK-10) was > 100 µM (inactive) and the GI50 (RPMI-8226) was 99.1 µM (inactive). For the same compound, the GI50 (PC-3) was > 100 µM (inactive), the GI50 (SW-620) was > 100 µM (inactive) and the GI50 (Hs-578T) was > 100 µM (inactive). For the same compound, the GI50 (UACC-257) was > 100 µM (inactive), the GI50 (CCRF-CEM) was > 100 µM (inactive) and the GI50 (MOLT-4) was > 100 µM (inactive). The GI50 (ACHN) was > 100 µM (inactive), the GI50 (HOP-92) was > 100 µM (inactive) and the GI50 (HOP-62) was > 100 µM (inactive). For the same compound, the GI50 (MDA-MB-231) was > 100 µM (inactive), the GI50 (SNB-75) was > 100 µM (inactive) and the GI50 (A498) was 32.2 µM (inactive). The GI50 (MDA-N) was > 100 µM (inactive), the GI50 (UO-31) was > 100 µM (inactive) and the GI50 (LOX IMVI) was > 100 µM (inactive). The GI50 (NCI-H226) was > 100 µM (inactive), the GI50 (EKVX) was > 100 µM (inactive) and the GI50 (A549) was > 100 µM (inactive). For the same compound, the GI50 (COLO 205) was > 100 µM (inactive), the GI50 (SR) was > 100 µM (inactive) and the GI50 (DU-145) was > 100 µM (inactive). For the same compound, the GI50 (OVCAR-4) was > 100 µM (inactive), the GI50 (MDA-MB-435) was > 100 µM (inactive) and the GI50 (SK-OV-3) was > 100 µM (inactive). For the same compound, the GI50 (NCI-H23) was > 100 µM (inactive), the GI50 (M14) was > 100 µM (inactive) and the GI50 (SF-295) was 91.4 µM (inactive). For the same compound, the GI50 (KM12) was > 100 µM (inactive), the GI50 (OVCAR-8) was > 100 µM (inactive) and the GI50 (SK-MEL-5) was > 100 µM (inactive). For the same compound, the GI50 (SK-MEL-28) was > 100 µM (inactive), the GI50 (HT-29) was > 100 µM (inactive) and the GI50 (SNB-19) was > 100 µM (inactive). For the same compound, the GI50 (SN12C) was > 100 µM (inactive), the GI50 (MCF7) was > 100 µM (inactive) and the GI50 (K562) was > 100 µM (inactive). The GI50 (IGROV-1) was > 100 µM (inactive) and the GI50 (Malme-3M) was > 100 µM (inactive).
In the case of Nc1ncn(C2OC(CO)C(O)C2O)c(=O)n1 (stereo not given), the GI50 (MOLT-4) is reported as 735 nM (active) and 1.22 µM (inactive).
In the case of Cc1nc(=O)n2c(c1C(=O)Nc1ccc(Cl)cc1)NCC2, the GI50 (HOP-92) is reported as 47.8 µM (inactive).
In the case of CC[C@H](CO)Nc1nc(NCc2ccccc2)c2ncn(C(C)C)c2n1 [SELICICLIB], the GI50 (OVCAR-3) is reported as 11.5 µM (inactive), the GI50 (HCC 2998) is reported as 32.2 µM (inactive) and the GI50 (UACC-62) is reported as 8.07 µM (inactive). The GI50 (HCT-15) was 19.3 µM, the GI50 (OVCAR-5) was 42.8 µM (inactive) and the GI50 (SK-MEL-2) was 17.5 µM (inactive). For the same compound, the GI50 (786-0) was 23.3 µM (inactive), the GI50 (SF-268) was 19.8 µM (inactive) and the GI50 (SF-539) was 15.8 µM (inactive). For the same compound, the GI50 (NCI/ADR-RES) was 6.97 µM (inactive), the GI50 (HCT-116) was 5.09 µM (inactive) and the GI50 (RXF 393) was 4.9 µM (inactive). The GI50 (U-251) was 53.8 µM (inactive), the GI50 (TK-10) was 64.1 µM (inactive) and the GI50 (RPMI-8226) was 24.2 µM (inactive). The GI50 (NCI-H460) was 27.9 µM (inactive), the GI50 (NCI-H522) was 16.4 µM (inactive) and the GI50 (PC-3) was 19.9 µM (inactive). For the same compound, the GI50 (T47D) was 16.3 µM (inactive), the GI50 (SW-620) was 82.4 µM (inactive) and the GI50 (CCRF-CEM) was > 100 µM (inactive). For the same compound, the GI50 (MOLT-4) was 25.1 µM (inactive), the GI50 (ACHN) was 12.8 µM (inactive) and the GI50 (HOP-92) was 50.9 µM (inactive). The GI50 (HOP-62) was 24.6 µM (inactive), the GI50 (MDA-MB-231) was 39.7 µM (inactive) and the GI50 (SNB-75) was 11.3 µM (inactive). For the same compound, the GI50 (A498) was 48.1 µM (inactive), the GI50 (UO-31) was 13.6 µM (inactive) and the GI50 (LOX IMVI) was 14 µM (inactive). The GI50 (NCI-H226) was 19.2 µM (inactive), the GI50 (EKVX) was 19.1 µM (inactive) and the GI50 (A549) was 13.6 µM (inactive). For the same compound, the GI50 (COLO 205) was 11.6 µM (inactive), the GI50 (SR) was 5.4 µM (inactive) and the GI50 (DU-145) was 16.9 µM (inactive). For the same compound, the GI50 (OVCAR-4) was 35.2 µM (inactive), the GI50 (MDA-MB-435) was 13.3 µM (inactive) and the GI50 (SK-OV-3) was 86.3 µM (inactive). The GI50 (NCI-H23) was 13.2 µM (inactive), the GI50 (M14) was 27.9 µM (inactive) and the GI50 (SF-295) was 25.5 µM (inactive). For the same compound, the GI50 (KM12) was 5.26 µM (inactive), the GI50 (SK-MEL-5) was 10.7 µM (inactive) and the GI50 (HT-29) was 20 µM (inactive). For the same compound, the GI50 (MCF7) was 13.5 µM (inactive), the GI50 (K562) was 53 µM (inactive) and the GI50 (CAKI-1) was 6.17 µM (inactive). For the same compound, the GI50 (HL-60) was 21.7 µM (inactive), the GI50 (IGROV-1) was 5.78 µM (inactive) and the GI50 (Malme-3M) was 19.3 µM (inactive).
